In patent US12213970B2, “Pyridinyl sulfonamide derivatives, pharmaceutical compositions and uses thereof” (Boehringer Ingelheim International GmbH, priority 2018, dated 2025):

Experiments:
[1] = molecular target: T1, human AOC3 enzyme (recombinant CHO cells) (Homo sapiens, UniProt Q16853); assay: AOC3 biochemical assay (MAO-Glo), human enzyme; settings: read-out: AOC3 IC50
T1 construct: expressed in transfected cells; host or cells: CHO cells
T1 sequence (Q16853 1-763): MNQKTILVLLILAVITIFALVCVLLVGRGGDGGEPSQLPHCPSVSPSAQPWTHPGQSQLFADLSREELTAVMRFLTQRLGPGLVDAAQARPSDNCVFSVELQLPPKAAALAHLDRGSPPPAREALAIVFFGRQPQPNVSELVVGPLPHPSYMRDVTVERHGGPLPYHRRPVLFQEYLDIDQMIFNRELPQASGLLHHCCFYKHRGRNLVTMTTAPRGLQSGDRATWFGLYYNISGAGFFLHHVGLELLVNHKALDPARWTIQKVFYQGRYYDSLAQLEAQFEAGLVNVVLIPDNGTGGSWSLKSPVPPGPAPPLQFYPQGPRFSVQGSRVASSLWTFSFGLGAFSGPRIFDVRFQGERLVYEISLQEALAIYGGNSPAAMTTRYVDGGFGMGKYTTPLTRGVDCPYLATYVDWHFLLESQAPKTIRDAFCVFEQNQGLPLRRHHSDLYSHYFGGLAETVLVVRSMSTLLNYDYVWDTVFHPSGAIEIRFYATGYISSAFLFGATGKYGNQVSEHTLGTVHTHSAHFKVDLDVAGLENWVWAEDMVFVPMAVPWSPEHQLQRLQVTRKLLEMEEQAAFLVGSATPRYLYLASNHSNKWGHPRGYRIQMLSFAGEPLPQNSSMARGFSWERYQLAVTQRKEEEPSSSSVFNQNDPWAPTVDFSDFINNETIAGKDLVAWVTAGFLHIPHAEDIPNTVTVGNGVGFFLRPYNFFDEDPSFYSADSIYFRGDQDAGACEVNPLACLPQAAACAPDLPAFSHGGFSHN
Text: The MAO-Glo™ Assay (commercially available from PROMEGA, #V1402) provides a sensitive method for the measurement of monoamine oxidase (MAO) activity (Valley, M. P. et al., 2006, Anal. Biochem. 359: 238-246) from a variety of tissues, biofluids or recombinant expressed or purified enzymes. As substrate a derivate of the beetle luciferin ((4S)-4,5-dihydro-2-(6-hydroxybenzothiazolyl)-4-thiazole-carboxylic acid) is used, which is oxidized at a primary amine moiety. After a spontaneous elimination and a catalyzed esterase reaction, the turnover of luciferin by the luciferase is recorded as a signal of AOC3 activity.
An aliquot of 3 μL of the compound dilution is added to a 384 well plate (Optiplate, PS, flat bottom, white, PERKIN ELMER, #6007290) with a final DMSO concentration of 6.6%. Recombinant CHO cells, overexpressing the human (1500 cells/well), mouse (1000 cells/well) or rat (500 cells/well) AOC3 enzyme are diluted in reaction buffer and added in a volume of 15 μL to the wells. After incubation for 20 minutes at 37° C., 2 μL of MAO substrate (dissolved in DMSO at 16 mM, adjusted to assay concentration in reaction buffer to a final assay concentration of 20 μM) is added and further incubated for 60 minutes at 37° C. The turnover of the substrate is determined by the addition of 20 μL of the detection-mix which was generated by the addition of reconstitution buffer with esterase (PROMEGA, #V1402) to the luciferin detection reagent (PROMEGA, #V1402). After an incubation period of 20 minutes, the luminescent signal is measured with Envision 2104 Multilabel Reader (PERKIN ELMER).

AOC1 = molecular target: T2, AOC1 (Homo sapiens, UniProt P19801); assay: AOC1 biochemical assay (Amplex Red); settings: read-out: AOC1 IC50
T2 construct: purchased R&D Systems 8297-AO-010
T2 sequence (P19801 20-751): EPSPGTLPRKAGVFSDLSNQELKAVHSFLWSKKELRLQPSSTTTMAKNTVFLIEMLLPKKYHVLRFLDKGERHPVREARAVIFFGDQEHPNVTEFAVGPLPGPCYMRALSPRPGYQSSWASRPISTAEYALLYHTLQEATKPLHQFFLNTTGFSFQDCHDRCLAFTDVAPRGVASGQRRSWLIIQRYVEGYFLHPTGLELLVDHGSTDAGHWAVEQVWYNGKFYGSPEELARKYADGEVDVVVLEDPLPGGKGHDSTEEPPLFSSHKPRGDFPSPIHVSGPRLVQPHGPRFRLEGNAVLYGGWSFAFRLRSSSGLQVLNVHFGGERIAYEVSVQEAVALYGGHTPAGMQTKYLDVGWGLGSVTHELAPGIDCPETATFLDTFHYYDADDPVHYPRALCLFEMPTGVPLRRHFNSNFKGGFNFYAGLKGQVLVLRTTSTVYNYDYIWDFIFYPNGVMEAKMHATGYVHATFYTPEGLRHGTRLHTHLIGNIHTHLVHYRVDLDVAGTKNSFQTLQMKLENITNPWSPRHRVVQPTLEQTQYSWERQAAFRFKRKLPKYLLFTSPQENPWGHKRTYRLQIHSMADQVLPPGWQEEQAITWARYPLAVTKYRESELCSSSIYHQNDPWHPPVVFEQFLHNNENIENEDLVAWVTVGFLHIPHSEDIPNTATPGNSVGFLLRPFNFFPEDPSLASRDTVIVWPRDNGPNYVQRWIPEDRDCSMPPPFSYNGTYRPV
Method: The Amplex® Red Assay (available from Thermo Fisher Scientific) provides a sensitive method for the detection of H2O2 generated during enzymatic reactions like the amine oxidation catalyzed by AOC1. The assay reagent is a colorless substrate (N-acetyl-3,7-dihydroxyphenoxazine) that reacts in a 1:1 stoichiometry with hydrogen peroxide (H2O2) to produce the fluorescent dye resorufin (7-hydroxyphenoxazin-3-one, excitation/emission maxima=570/585 nm).
An aliquot of 3 μL of the compound dilution is added to a 384 well plate (Optiplate, PS, flat bottom F, black, PERKIN ELMER, #6007270) in a DMSO concentration of 6.6%.
An AOC1 enzyme aliquot (#8297-AO-010, R&D Systems) is thawed on ice, diluted in reaction buffer and added in a volume of 7 μL to the wells to give a final assay concentration of 1 ng/well. After incubation of inhibitor and enzyme for 30 minutes at 37° C., the enzymatic reaction is started with the addition of 10 μL of Amplex® Red reaction mix (final assay concentration: 100 mM sodiumphosphate, 120 μM Amplex® Red reagent (#A22177 Molecular Probes), 1.5 U/mL Horseradish Peroxidase (#P8375 Sigma-Aldrich), 200 μM putrescine (#P7505 Sigma-Alrdich), 0.05% Pluronic F-127 (#P3000MP Sigma-Aldrich), pH 7.4, 37° C.).
After an incubation for 30 minutes at 37° C. the turnover of the substrate is determined directly (or after the addition of an excess of an amine-oxidase inhibitor) with a fluorescence reader (Ex 540 nm/Em 590 nm) like Envision 2104 Multilabel Reader (PERKIN ELMER).

Row | Compound | IC50 [1] [nM] | IC50 (AOC1) [nM]
1 | CN(C)C(=O)C1CCN(S(=O)(=O)c2ccc(OC/C(=C\F)CN)nc2)CC1 [Example 17] | 16 | 6250
2 | NC/C(=C/F)COc1ccc(S(=O)(=O)N2CCC[C@@H]2C(N)=O)cn1 [Example 18] | 50 | 1220
3 | CN(C)C(=O)CC1CCN(S(=O)(=O)c2ccc(OC/C(=C\F)CN)nc2)CC1 [Example 19] | 9 | 12500
4 | NC/C(=C/F)COc1ccc(S(=O)(=O)N2CC(C(N)=O)C2)cn1 [Example 20] | 6 | 1360
5 | NC/C(=C/F)COc1ccc(S(=O)(=O)N2CC[C@H](C(=O)N3CCOCC3)C2)cn1 [Example 21] | 28 | 4090
6 | NC/C(=C/F)COc1ccc(S(=O)(=O)N2C[C@H]3C[C@@]3(C(=O)N3CCOCC3)C2)cn1 [Example 22] | 35 | 13700
7 | CCNC(=O)C1(C)CCN(S(=O)(=O)c2ccc(OC/C(=C\F)CN)nc2)CC1 [Example 23] | 28 | > 50000
8 | CC(=O)N[C@@H]1CCCN(S(=O)(=O)c2ccc(OC/C(=C\F)CN)nc2)C1 [Example 24] | – | 1000
9 | CN(C)C(=O)C1CN(S(=O)(=O)c2ccc(OC/C(=C\F)CN)nc2)C1 [Example 25] | 13 | 1320
10 | NC/C(=C/F)COc1ccc(S(=O)(=O)N2CC(C3CCN(C(=O)C4CC4)CC3)C2)cn1 [Example 26] | 9 | 911
11 | CNC(=O)[C@H]1[C@@H]2CN(S(=O)(=O)c3ccc(OC/C(=C\F)CN)nc3)C[C@@H]21 [Example 27] | 5 | 1260
12 | CC(=O)NCC1CCN(S(=O)(=O)c2ccc(OC/C(=C\F)CN)nc2)CC1 [Example 28] | 13 | 3740
13 | CNC(=O)[C@@]12C[C@@H]1CN(S(=O)(=O)c1ccc(OC/C(=C\F)CN)nc1)C2 [Example 29] | 8 | 1370
14 | CCNC(=O)CC1CCN(S(=O)(=O)c2ccc(OC/C(=C\F)CN)nc2)CC1 [Example 30] | 15 | 8900
15 | NC/C(=C/F)COc1ccc(S(=O)(=O)N2CC[C@@H](C(N)=O)C2)cn1 [Example 31] | 4 | 869
16 | COC(=O)CC1CCN(S(=O)(=O)c2ccc(OC/C(=C\F)CN)nc2)CC1 [Example 32] | 4 | 5450
17 | COC1CN(S(=O)(=O)c2ccc(OC/C(=C\F)CN)nc2)C1 [Example 33] | 3 | 1140
18 | COC(=O)C1CCN(S(=O)(=O)c2ccc(OC/C(=C\F)CN)nc2)CC1 [Example 34] | 4 | 2400
